Like-named read-outs stand apart in the source and are kept apart here.
What was measured:
[1] = tested on: A375—NRASQ^61K cells (cell line A375.11); experiment: CTGlo (CellTiter-Glo 2.0) Cell Viability Assay; type: cell-based
Experimental: Compounds of the present invention were tested for their effect on the viability of A375—NRASQ^61K cells by quantification of ATP using the CellTiter-Glo® 2.0 Cell Viability Assay (Catalog No. G9243, Promega, Madison, WI, USA). This assay produces a luminescent signal in the presence of ATP, which is indicative of metabolically active cells, making the luminescence readout proportional to the number of viable cells. A375—NRASQ^61K cells, also referred to here as cell line A375.11, (harboring BRAF homozygous V600E mutation and NRAS homozygous Q61K mutation) were purchased from ATCC (Catalog No. CRL-1619IG-2, Manassas, VA, USA).
Cells were also plated to a 384-well plate with no compound treatment, to which CellTiter-Glo® reagent was added and luminescence was read right after plating to act as a baseline signal at time of plating (To).
DMSO treated cells with no CellTiter-Glo® reagent added were used as the background or positive control (P). Viability was determined by subtracting out the average background signal (P) and normalized to the average untreated signal (N) set at 100%.

GSPT1 = GSPT1 (Homo sapiens, UniProt P15170+Q96SW2); experiment: GSPT1 HiBiT Degradation Assay in 293T.114 cells; conditions: for HIBIT-Degradation 293T.114 GSPT1 24 hours IP nM / DC50: 293T.114 cells, 24 hours; for HIBIT-Degradation 293T.114 GSPT1 24 hours IP nM: inflection point of the dose-response curve; for DC50: read-out: HIBIT-Degradation 293T.114 GSPT1 24 hours DC50 nM; for Emax: read-out: HIBIT-Degradation 293T.114 GSPT1 24 hours Emax
Sequence of GSPT1 (Q96SW2 whole entry): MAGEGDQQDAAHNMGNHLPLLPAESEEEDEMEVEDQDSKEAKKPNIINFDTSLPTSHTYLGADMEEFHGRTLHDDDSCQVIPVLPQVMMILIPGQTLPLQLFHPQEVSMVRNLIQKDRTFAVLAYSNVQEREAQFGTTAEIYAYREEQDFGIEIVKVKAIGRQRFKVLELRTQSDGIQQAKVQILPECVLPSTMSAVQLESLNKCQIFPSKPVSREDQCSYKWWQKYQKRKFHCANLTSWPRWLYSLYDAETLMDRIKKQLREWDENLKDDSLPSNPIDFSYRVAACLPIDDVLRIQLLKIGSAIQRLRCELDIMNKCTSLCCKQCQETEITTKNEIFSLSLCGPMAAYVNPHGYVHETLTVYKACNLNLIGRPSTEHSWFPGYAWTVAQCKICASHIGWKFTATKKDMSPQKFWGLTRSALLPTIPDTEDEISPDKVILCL
Sequence of GSPT1 (Q16531 2-1140, further chain): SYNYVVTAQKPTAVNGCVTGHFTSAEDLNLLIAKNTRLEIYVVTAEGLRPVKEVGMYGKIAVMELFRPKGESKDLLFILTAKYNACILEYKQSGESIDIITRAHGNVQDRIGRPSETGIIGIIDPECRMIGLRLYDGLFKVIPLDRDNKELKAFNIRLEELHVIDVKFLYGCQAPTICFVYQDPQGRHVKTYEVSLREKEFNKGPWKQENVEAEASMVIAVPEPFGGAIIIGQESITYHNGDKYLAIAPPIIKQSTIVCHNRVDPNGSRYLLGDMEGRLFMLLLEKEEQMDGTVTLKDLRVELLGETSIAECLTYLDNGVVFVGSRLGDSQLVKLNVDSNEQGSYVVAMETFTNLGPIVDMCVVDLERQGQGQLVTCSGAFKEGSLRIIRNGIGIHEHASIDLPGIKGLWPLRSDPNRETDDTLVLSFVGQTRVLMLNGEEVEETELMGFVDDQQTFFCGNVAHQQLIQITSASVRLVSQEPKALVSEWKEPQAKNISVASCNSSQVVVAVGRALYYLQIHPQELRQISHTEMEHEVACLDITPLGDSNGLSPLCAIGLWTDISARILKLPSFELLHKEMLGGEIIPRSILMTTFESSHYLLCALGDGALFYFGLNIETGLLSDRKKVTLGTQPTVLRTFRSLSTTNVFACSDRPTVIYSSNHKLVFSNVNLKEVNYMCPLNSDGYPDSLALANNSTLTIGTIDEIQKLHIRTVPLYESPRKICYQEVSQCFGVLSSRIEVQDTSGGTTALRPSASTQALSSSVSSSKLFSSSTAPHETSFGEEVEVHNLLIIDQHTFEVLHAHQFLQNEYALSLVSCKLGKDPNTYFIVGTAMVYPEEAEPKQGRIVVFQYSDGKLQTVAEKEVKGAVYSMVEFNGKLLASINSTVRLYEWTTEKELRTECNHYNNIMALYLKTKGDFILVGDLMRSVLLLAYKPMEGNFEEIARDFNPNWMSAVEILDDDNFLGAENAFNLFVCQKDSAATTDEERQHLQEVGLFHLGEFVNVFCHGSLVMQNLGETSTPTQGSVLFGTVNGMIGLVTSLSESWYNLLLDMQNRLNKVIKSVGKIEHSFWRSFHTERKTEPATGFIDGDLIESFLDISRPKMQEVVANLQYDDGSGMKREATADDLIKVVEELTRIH
Sequence of GSPT1 (P15170 whole entry): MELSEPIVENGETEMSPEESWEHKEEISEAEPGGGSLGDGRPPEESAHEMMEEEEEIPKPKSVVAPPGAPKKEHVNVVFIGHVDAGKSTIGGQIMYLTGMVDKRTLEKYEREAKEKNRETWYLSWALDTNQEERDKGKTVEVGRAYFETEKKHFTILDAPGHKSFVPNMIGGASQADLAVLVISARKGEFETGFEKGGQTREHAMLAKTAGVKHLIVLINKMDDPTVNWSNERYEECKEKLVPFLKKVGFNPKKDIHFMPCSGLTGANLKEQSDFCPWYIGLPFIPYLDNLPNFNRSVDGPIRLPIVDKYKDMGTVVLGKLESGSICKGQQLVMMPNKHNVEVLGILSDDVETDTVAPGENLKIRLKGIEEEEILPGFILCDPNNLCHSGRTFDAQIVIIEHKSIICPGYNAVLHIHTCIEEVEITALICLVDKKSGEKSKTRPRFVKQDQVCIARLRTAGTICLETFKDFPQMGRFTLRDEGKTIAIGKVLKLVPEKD

[2] = 96 h, IP, read-out: CTGlo A375.11 96 hours IP
[3] = 96 hours, lowest % viability achieved
[4] = half-maximal inhibition of cell growth, table title: A375.11 96 hours, read-out: CTGlo A375.11 96 hours GI50
[5] = 96 hours, IP, read-out: CTGlo A375.11 96 hours IP

Row | GI50 [1, 5] | SMILES | GI50 [1, 2] | Emax [1, 3] | GI50 [1, 4] | further results
1 | – | CCN(C)S(=O)(=O)Nc1ccc(F)c(Oc2ccc3ncn([C@H]4COC5(CCN(C(=O)CN6CCC(c7ccc(N8CCC(=O)NC8=O)cc7OS(=O)(=O)F)CC6)CC5)C4)c(=O)c3c2)c1C#N [drawing 1180] | 1 to 10 µM | 60 to 95% | > 10 µM | –
2 | – | CCN(C)S(=O)(=O)Nc1ccc(F)c(Oc2ccc3ncn([C@@H]4COC5(CCN(C(=O)CN6CCC(c7ccc(C8CCC(=O)NC8=O)cc7OS(=O)(=O)F)CC6)CC5)C4)c(=O)c3c2)c1C#N (stereo partly drawn) [drawing 1231] | – | – | – | HIBIT-Degradation 293T.114 GSPT1 24 hours IP nM (GSPT1): ** (<10 μM and >1 μM is **); DC50 (GSPT1): > 10000 nM; Emax (GSPT1): < 60%
3 | – | CCN(C)S(=O)(=O)Nc1ccc(F)c(Oc2ccc3ncn([C@H]4COC5(CCN(C(=O)CN6CCC(c7ccc(OC8CCC(=O)NC8=O)cc7OS(=O)(=O)F)CC6)CC5)C4)c(=O)c3c2)c1C#N (stereo partly drawn) [drawing 1179] | 1 to 10 µM | 60 to 95% | > 10 µM | –
4 | > 10 µM | CCN(C)S(=O)(=O)Nc1ccc(F)c(Oc2ccc3ncn([C@@H]4COC5(CCN(C(=O)CN6CCC(c7ccc(C8CCC(=O)NC8=O)cc7OS(C)(=O)=O)CC6)CC5)C4)c(=O)c3c2)c1C#N (stereo partly drawn) [drawing 1182] | – | 60 to 95% | > 10 µM | –
5 | – | CCN(C)S(=O)(=O)Nc1ccc(F)c(Oc2ccc3ncn([C@@H]4COC5(CCN(C(=O)CN6CCC(c7ccc(OC8CCC(=O)NC8=O)cc7OS(=O)(=O)F)CC6)CC5)C4)c(=O)c3c2)c1C#N (stereo partly drawn) [drawing 1186] | > 10 µM | 60 to 95% | > 10 µM | –
6 | – | CCN(C)S(=O)(=O)Nc1ccc(F)c(Oc2ccc3ncn([C@H]4COC5(CCN(C(=O)CN6CCN(c7ccc(N8CCC(=O)NC8=O)cc7OS(=O)(=O)F)CC6)CC5)C4)c(=O)c3c2)c1C#N [drawing 1172] | > 10 µM | 60 to 95% | > 10 µM | –
7 | – | CCN(C)S(=O)(=O)Nc1ccc(F)c(Oc2ccc3ncn([C@@H]4COC5(CCN(C(=O)CN6CCC(c7ccc(NC8CCC(=O)NC8=O)cc7S(=O)(=O)F)CC6)CC5)C4)c(=O)c3c2)c1C#N (stereo partly drawn) [drawing 1177] | > 10 µM | 60 to 95% | > 10 µM | –
8 | – | CCN(C)S(=O)(=O)Nc1ccc(F)c(Oc2ccc3ncn([C@@H]4COC5(CCN(C(=O)CN6CCC(c7ccc(N8CCC(=O)NC8=O)cc7OS(=O)(=O)F)CC6)CC5)C4)c(=O)c3c2)c1C#N [drawing 1171] | > 10 µM | 60 to 95% | > 10 µM | –
9 | – | CCN(C)S(=O)(=O)Nc1ccc(F)c(Oc2ccc3ncn([C@@H]4COC5(CCN(C(=O)CN6CCN(c7ccc(N8CCC(=O)NC8=O)cc7OS(=O)(=O)F)CC6)CC5)C4)c(=O)c3c2)c1C#N [drawing 1185] | > 10 µM | 60 to 95% | > 10 µM | –
10 | – | CCN(C)S(=O)(=O)Nc1ccc(F)c(Oc2ccc3ncn([C@H]4COC5(CCN(C(=O)CN6CCN(c7ccc(C8CCC(=O)NC8=O)cc7OS(=O)(=O)F)CC6)CC5)C4)c(=O)c3c2)c1C#N (stereo partly drawn) [drawing 1232] | – | – | – | HIBIT-Degradation 293T.114 GSPT1 24 hours IP nM (GSPT1): ** (<10 μM and >1 μM is **); DC50 (GSPT1): > 10000 nM; Emax (GSPT1): 60 to 95%
11 | 1 to 10 µM | CCN(C)S(=O)(=O)Nc1ccc(F)c(Oc2ccc3ncn([C@H]4COC5(CCN(C(=O)CN6CCC(c7ccc(NC8CCC(=O)NC8=O)cc7OS(C)(=O)=O)CC6)CC5)C4)c(=O)c3c2)c1C#N (stereo partly drawn) [drawing 1176] | – | < 60% | > 10 µM | –
12 | – | CCN(C)S(=O)(=O)Nc1ccc(F)c(Oc2ccc3ncn([C@H]4COC5(CCN(C(=O)CN6CCC(c7ccc(OC8CCC(=O)NC8=O)cc7S(=O)(=O)F)CC6)CC5)C4)c(=O)c3c2)c1C#N (stereo partly drawn) [drawing 1181] | > 10 µM | 60 to 95% | > 10 µM | –
13 | – | CCN(C)S(=O)(=O)Nc1ccc(F)c(Oc2ccc3ncn([C@H]4COC5(CCN(C(=O)CN6CCC(c7ccc(C8CCC(=O)NC8=O)cc7OS(=O)(=O)F)CC6)CC5)C4)c(=O)c3c2)c1C#N (stereo partly drawn) [drawing 1169] | 1 to 10 µM | < 60% | > 10 µM | –
14 | 1 to 10 µM | CCN(C)S(=O)(=O)Nc1ccc(F)c(Oc2ccc3ncn([C@H]4COC5(CCN(C(=O)CN6CCC(c7ccc(N8CCC(=O)NC8=O)cc7OS(C)(=O)=O)CC6)CC5)C4)c(=O)c3c2)c1C#N [drawing 1174] | – | < 60% | 1 to 10 µM | –
15 | > 10 µM | CCN(C)S(=O)(=O)Nc1ccc(F)c(Oc2ccc3ncn([C@H]4COC5(CCN(C(=O)CN6CCC(c7ccc(OC8CCC(=O)NC8=O)cc7OS(C)(=O)=O)CC6)CC5)C4)c(=O)c3c2)c1C#N (stereo partly drawn) [drawing 1184] | – | 60 to 95% | > 10 µM | –
16 | – | CCN(C)S(=O)(=O)Nc1ccc(F)c(Oc2ccc3ncn([C@@H]4COC5(CCN(C(=O)CN6CCC(c7ccc(OC8CCC(=O)NC8=O)cc7S(=O)(=O)F)CC6)CC5)C4)c(=O)c3c2)c1C#N (stereo partly drawn) [drawing 1175] | > 10 µM | < 60% | > 10 µM | –
17 | > 10 µM | CCN(C)S(=O)(=O)Nc1ccc(F)c(Oc2ccc3ncn([C@@H]4COC5(CCN(C(=O)CN6CCC(c7ccc(OC8CCC(=O)NC8=O)cc7OS(C)(=O)=O)CC6)CC5)C4)c(=O)c3c2)c1C#N (stereo partly drawn) [drawing 1187] | – | 60 to 95% | > 10 µM | –
18 | 1 to 10 µM | CCN(C)S(=O)(=O)Nc1ccc(F)c(Oc2ccc3ncn([C@@H]4COC5(CCN(C(=O)CN6CCC(c7ccc(N8CCC(=O)NC8=O)cc7OS(C)(=O)=O)CC6)CC5)C4)c(=O)c3c2)c1C#N [drawing 1173] | – | 60 to 95% | > 10 µM | –
19 | – | CCN(C)S(=O)(=O)Nc1ccc(F)c(Oc2ccc3ncn([C@@H]4COC5(CCN(C(=O)CN6CCC(c7ccc(C8CCC(=O)NC8=O)cc7OS(=O)(=O)F)CC6)CC5)C4)c(=O)c3c2)c1C#N (stereo partly drawn) [drawing 1168] | 1 to 10 µM | 60 to 95% | > 10 µM | –
20 | – | CCN(C)S(=O)(=O)Nc1ccc(F)c(Oc2ccc3ncn([C@H]4COC5(CCN(C(=O)CN6CCC(c7ccc(NC8CCC(=O)NC8=O)cc7S(=O)(=O)F)CC6)CC5)C4)c(=O)c3c2)c1C#N (stereo partly drawn) [drawing 1178] | > 10 µM | 60 to 95% | > 10 µM | –
21 | > 10 µM | CCN(C)S(=O)(=O)Nc1ccc(F)c(Oc2ccc3ncn([C@@H]4COC5(CCN(C(=O)CN6CCC(c7ccc(NC8CCC(=O)NC8=O)cc7OS(C)(=O)=O)CC6)CC5)C4)c(=O)c3c2)c1C#N (stereo partly drawn) [drawing 1188] | – | > 95% | > 10 µM | –
22 | – | CCN(C)S(=O)(=O)Nc1ccc(F)c(Oc2ccc3ncn([C@H]4COC5(CCN(C(=O)CN6CCN(c7ccc(C8CCC(=O)NC8=O)cc7OS(=O)(=O)F)CC6)CC5)C4)c(=O)c3c2)c1C#N (stereo partly drawn) [drawing 1170] | < 1 µM | 60 to 95% | > 10 µM | –
23 | – | CCN(C)S(=O)(=O)Nc1ccc(F)c(Oc2ccc3ncn([C@H]4COC5(CCN(C(=O)CN6CCN(c7ccc(C8CCC(=O)NC8=O)cc7OS(=O)(=O)F)CC6)CC5)C4)c(=O)c3c2)c1C#N (stereo partly drawn) [drawing 1183] | – | – | > 10 µM | CTGlo A375.11 96 hours IP nM ([1]; 96 hours, IP): ** (<10 μM and >1 μM is **); CTGlo A375.11 96 hours Emax [1, 3]: ** (<95% and >60% is **)

Source: patent publication US20260274856A1, “COVALENT CEREBLON LIGANDS” (C4 THERAPEUTICS, INC., priority 2023, published 2026)
